Literature values in US20060078955A1, “Method for retrieving delta9-THC from oral fluid” (Lin-Zhi International, priority 2004, published 2006).

Compound | aqueous solubility (Jarho et al.) [µg/mL] | intrinsic aqueous solubility (hepta-substituted preparation) [% w/v]
CCCCCc1cc(O)c2c(c1)OC(C)(C)[C@@H]1CCC(C)=C[C@@H]21 [Δ^9-THC, Δ^9-tetrahydrocannabinol] | 1 to 2 | 
sulfobutyl-ether-β-cyclodextrin [Captisol] |  | > 50
